In patent US10654852B2, “Antibiotics and methods of using same” (THE BROAD INSTITUTE, INC., priority 2016, dated 2020):
Converted amounts (≈) assume the structure as drawn.

Assays:
[1] = system: Escherichia coli NCTC-13476; assay: MIC (50% NHS); assay type: cell-based; conditions: NCTC13476; Escherichia coli NCTC-13476, 50% NHS
in vivo = assay: in vivo; design: species or system mice; conditions: mouse, iv, 10 mg/kg; for half-life: T1/2
Procedure: Compounds were tested in a pharmacokinetic (“PK”) study to determine the T1/2 of test compounds in mice. The PK study was performed at an approved contract research organization. Each test compound was dissolved in a vehicle to make a test antibiotic composition. The vehicle may be, for example, a water or a 5% solutol in saline solution Administration to each mouse is performed via intravenous (IV) cannulation of the tail vein. Blood is collected over K2-EDTA anticoagulant from the submandibular or sapheneous vein at predetermined time points. Following collection, the blood samples are stored at −70° C. until analysis by LC-MS and comparison to a standard calibration curve results in the T1/2 for each compound. The blood concentration of test compounds was measured at various times following 10 mg/kg (mouse) intravenous (IV) administration of each tested compound. […] The T1/2 for compound 17 was 34.2 hours, for compound 23 was 22.0 hours, and for compound 24 was 22.5 hours.

[2] = Microsomal stability assay, mouse CLint; assay type: in vitro ADME; design: unit not given here; conditions: mouse liver microsomes, 1 μM, 0.5 mg/ml microsomal protein
Procedure: The activity profiles of compounds 17, 23, and 24 were assessed by various in vitro measurements. The minimum inhibitory concentration (MIC), MIC in the presence of normal human serum (NHS), microsome CLint, the % of free compounds following a plasma protein biding (PPB) assay, and the concentration of drug where the human-ether-à-go-go-related gene (hERG gene) channel block is halved (IC50(hERG)) were measured using standard in vitro protocols for compounds 17, 23, and 24. Unless otherwise indicated, measurements (e.g., microsomal clearance) were performed using a standard microsomal stability assay using LC/MS/MS techniques.
Test compounds were incubated at 37° C. with liver microsomes pooled from multiple donors at 1 μM in the presence of a NADPH regenerating system at 0.5 mg/ml microsomal protein. Positive of testosterone (a 3A4 substrate), propafenone (a 2D6 substrate), and diclofenac (a 2c9 substrate) were similarly incubated with microsomes in the presence of a NADPH regenerating system. Samples are removed at 0, 5, 10, 20, 30, and 60 minutes of incubation and immediately mixed with cold acetonitrile containing an internal standard (IS). Samples are then analyzed by LC/MS/MS to determine the disappearance of the test compound and are assessed based on the peak area ratios of analyte/IS (no standard curve).

[3] = system: Enterobacter aerogenes ATCC-13048; assay: MIC (50% NHS); assay type: cell-based; conditions: Klebsiella aerogenes, ATCC13048; Enterobacter aerogenes ATCC-13048, 50% NHS
[4] = system: Escherichia coli CCUG-59353; assay: MIC (50% NHS); assay type: cell-based; conditions: CCUG59353; Escherichia coli CCUG-59353, 50% NHS
[5] = system: Staphylococcus aureus NRS-384; assay: MIC (50% NHS); assay type: cell-based; conditions: NRS384; Staphylococcus aureus NRS-384, 50% NHS
[6] = system: Escherichia coli ATCC 25922; assay: Deep thigh infection model in neutropenic mice, CFU count; assay type: in vivo; conditions: 24 h P.I.; for colony forming units (CFU) as compared to the control: neutropenic CD-1 mice, thigh, 12.5 mg/kg IV four doses (1, 3, 5, 7 h P.I.); for colony forming units (CFU) compared with ciprofloxacin: 12.5 mg/kg compound vs 2.5 mg/kg ciprofloxacin, four doses
Procedure: The in vivo activity to determine the CFU following administration of the test compounds was determined on a deep thigh infection caused by Escherichia coli ATCC 25922 in mice. The in vivo efficacy of various compounds was measured using a modified version of the deep-thigh infection model disclosed in Selbie, F R, et al., Br. J. Exp. Pathol. 33 (1952), 315-26 and Zuluaga, A F, et al., BMC Infect. Dis. 6 (2005) 55, each of which is hereby incorporated by reference. The efficacy was determined measuring the number of bacterial colony forming units (“CFU”) of mice injected with Escherichia coli […] on Day 0 following administration of the compounds.
Female CD-1 mice, aged 6-8-weeks, were purchased from local licensed supplier. The mice were allowed to acclimate for 3 days in the animal facility before experimentation began. The mice were then rendered neutropenic by intraperitoneal (“I.P.”) injection of 150 mg/kg cyclophosphamide on Day-4 (4 days prior to the injection of bacteria), and a maintaining dose of 100 mg/kg cyclophosphamide on Day-1 (1 day prior to the injection of bacteria). This regimen conditioned mice to neutropenia during the study. On the day of bacterial challenge (Day 0), Escherichia coli ATCC 29522 was injected into each mouse. Prior to injection, the bacterium was streaked out from −80° C. glycerol stock onto a tryptone soya agar (“TSA”) plate on Day-1. On the day of bacterial challenging (Day 0), single colonies on the agar plate were suspended in sterile saline and the final bacterial concentration was adjusted to approximately 1×10^6 CFU/ml based on turbidity readout of the bacterial solution from a Siemens MicroScan turbidity meter. The bacterial suspension was kept on ice temporarily prior to injection once the desired concentration was achieved.
On Day 0, 100 μl of bacterial suspension as prepared above was injected into the posterior quadriceps muscles of the right thigh. Antibiotic compositions comprising a tested compound in a vehicle were given to mice through tail vein injection at one hours, three hours, five hours and 7 hours post of infection (“P.I.”). The vehicle for each antibiotic composition is 5% (w/v) solutol HS15 in water. At 24 h P.I., all mice were euthanized. Infected thigh muscles for each tested mouse were excised and stored in ice-cold sterile saline for transfer to a Biosafety Level 2 (“BSL-2”) laboratory for subsequent CFU counting. Within one hour following sample collection, the muscles from mice tested with the same antibiotic composition were homogenized by a homogenizer (IKA T10 basic S25), serially diluted in sterile saline, and plated on TSA plates. The plates were incubated at 30° C. for approximately 18 h. The CFU were counted and calculated as CFU/mouse. The animal facility was AAALAC accredited, and the animal welfare in this experiment was in compliance of IACUC.
The number of colony forming units was independently measured in five different mice per composition administered. Each mouse was administered a mass of active compound per kg weight of the mouse four times a day. Mice were administered a composition without a test compound, compositions comprising 2.5 mg(ciprofloxacin)/kg, 12.5 mg(Compound 17)/kg, 12.5 mg(Compound 23)/kg, and 12.5 mg(Compound 24)/kg).

[7] = system: Proteus mirabilis ATCC-29906; assay: MIC (50% NHS); assay type: cell-based; conditions: ATCC29906; Proteus mirabilis ATCC-29906, 50% NHS
[8] = system: Pseudomonas aeruginosa ATCC-BAA-47 (PAO1); assay: MIC (50% NHS); assay type: cell-based
[9] = system: Citrobacter werkmanii Brenner ATCC-51114; assay: MIC (50% NHS); assay type: cell-based; conditions: ATCC51114; Citrobacter werkmanii Brenner ATCC-51114, 50% NHS

Compound | MIC [1] [µg/mL] | clearance (in vivo) [mL/min/kg] | half-life (in vivo) [h] | mouse CLint [2] | MIC [3] [µg/mL] | MIC [4] [µg/mL] | MIC [5] [µg/mL] | colony forming units (CFU) as compared to the control [6] | MIC [7] [µg/mL] | MIC [8] [µg/mL] | MIC [9] [µg/mL] | colony forming units (CFU) compared with ciprofloxacin [6] | T1/2 (in vivo) [h]
CN1CC2CN(C(=O)Nc3cc(F)cc(F)c3)CC(C1)C2(O)c1ccc(-c2ccc(CN)cc2C#N)cn1 [Compound 24, (1R,5S,9r)-9-(5-(4-(aminomethyl)-2-cyanophenyl)pyridin-2-yl)-N-(3,5-difluorophenyl)-9-hydroxy-7-methyl-3,7-diazabicyclo[3.3.1]nonane-3-carboxamide] | 4 (≈ 7.71 µM) | 13.9 | 22.5 | >145 | 2 (≈ 3.86 µM) | 4 (≈ 7.71 µM) | 0.5 (≈ 0.964 µM) | decrease the amount of colony forming units | 32 (≈ 61.7 µM) | 2 (≈ 3.86 µM) | 4 (≈ 7.71 µM) |  | 
CN1CC2CN(C(=O)Nc3cc(F)cc(F)c3)CC(C1)C2(O)c1ccc(-c2ccc(CN)cc2C#N)cc1 [Compound 23, (1R,5S,9r)-9-(4′-(aminomethyl)-2′-cyano-[1,1′-biphenyl]-4-yl)-N-(3,5-difluorophenyl)-9-hydroxy-7-methyl-3,7-diazabicyclo[3.3.1]nonane-3-carboxamide] | 2 (≈ 3.86 µM) | 9.78 | 22 | 105 | 1 (≈ 1.93 µM) | 2 (≈ 3.86 µM) | 0.13 (≈ 0.251 µM) | decrease the amount of colony forming units | 4 (≈ 7.73 µM) | 2 (≈ 3.86 µM) | 4 (≈ 7.73 µM) | Comparable results to ciprofloxacin | 
CNCc1ccc(-c2ccc(C3(O)C4CN(C)CC3CN(C(=O)Nc3cc(F)cc(F)c3)C4)nc2)c(C#N)c1 [Compound 17, (1R,5S,9r)-9-(5-(2-cyano-4-((methylamino)methyl)phenyl)pyridin-2-yl)-N-(3,5-difluorophenyl)-9-hydroxy-7-methyl-3,7-diazabicyclo[3.3.1]nonane-3-carboxamide] | 1.78 (≈ 3.34 µM) | 8.86 | 34 | >145 | 0.45 (≈ 0.845 µM) | 1.78 (≈ 3.34 µM) | 0.22 (≈ 0.413 µM) | decrease the amount of colony forming units | 7.12 (≈ 13.4 µM) | 1.78 (≈ 3.34 µM) | 3.56 (≈ 6.68 µM) | Comparable results to ciprofloxacin | 34.2
